Results: US20200121801A1, “DRUG DELIVERY CONJUGATES CONTAINING UNNATURAL AMINO ACIDS AND METHODS FOR USING” (priority 2012, published 2020)
“Also recorded” adds a separate entry of the source. Marks after values point to notes of the source that are not given here.

Tests used:
[1] = target: T1, folate receptors (FRs) on KB cells (Homo sapiens, UniProt P15328); test: Relative affinity assay (3H-folic acid competition) on KB cells; type: binding; conditions: folic acid = 1; in 10% serum/FDRPMI
T1 construct: FR-positive KB cells are heavily seeded into 24-well cell culture plates; endogenous in cells; host or cells: KB cells
Protocol: METHOD. Relative Affinity Assay. The affinity for folate receptors (FRs) relative to folate is determined according to a previously described method (Westerhof, G. R., J. H. Schornagel, et al. (1995) Mol. Pharm. 48: 459-471) with slight modification. Briefly, FR-positive KB cells are heavily seeded into 24-well cell culture plates and allowed to adhere to the plastic for 18 h. Spent incubation media is replaced in designated wells with folate-free RPMI (FFRPMI) supplemented with 100 nM ^3H-folic acid in the absence and presence of increasing concentrations of test article or folic acid. Cells are incubated for 60 min at 37° C. and then rinsed 3 times with PBS, pH 7.4. Five hundred microliters of 1% SDS in PBS, pH 7.4, is added per well. Cell lysates are then collected and added to individual vials containing 5 mL of scintillation cocktail, and then counted for radioactivity. Negative control tubes contain only the ^3H-folic acid in FFRPMI (no competitor). Positive control tubes contain a final concentration of 1 mM folic acid, and CPMs measured in these samples (representing non-specific binding of label) are subtracted from all samples.

[2] = system: KB cells (FR+); type: cell-based, Human
Protocol: METHOD. Inhibition of Cellular DNA Synthesis. The compounds described herein are evaluated using an in vitro cytotoxicity assay that predicts the ability of the drug to inhibit the growth of folate receptor-positive cells, such as KB cells, RAW264.7 macrophages, and the like. It is to be understood that the choice of cell type can made on the basis of the susceptibility of those selected cells to the drug that forms the conjugate. The test compounds are comprised of folate linked to a respective chemotherapeutic drug, as prepared according to the processes described herein. The test cells are exposed to varying concentrations of folate-drug conjugate, and also in the absence or presence of at least a 100-fold excess of folic acid to assess activity as being specific to folate receptor mediation.
EXAMPLE. Conjugates of cytotoxic drugs described herein are active against KB cells. The activity is mediated by the folate receptor as indicated by competition experiments using co-administered folic acid. KB cells are exposed for up to 7 h at 37° C. to the indicated concentrations of folate-drug conjugate in the absence or presence of at least a 100-fold excess of folic acid. The cells are then rinsed once with fresh culture medium and incubated in fresh culture medium for 72 hours at 37° C. Cell viability was assessed using a ^3H-thymidine incorporation assay.
(§1) METHOD. In vitro activity against various cancer cell lines. IC50 values are generated for various cell lines. Cells are heavily seeded in 24-well Falcon plates and allowed to form nearly confluent monolayers overnight. Thirty minutes prior to the addition of the test compound, spent medium is aspirated from all wells and replaced with fresh folate-deficient RPMI medium (FFRPMI). A subset of wells are designated to receive media containing 100 μM folic acid. The cells in the designated wells are used to determine the targeting specificity. Without being bound by theory it is believed herein that the cytotoxic activity produced by test compounds in the presence of excess folic acid, i.e. where there is competition for FR binding, corresponds to the portion of the total activity that is unrelated to FR-specific delivery. Following one rinse with 1 mL of fresh FFRPMI containing 10% heat-inactivated fetal calf serum, each well receives 1 mL of medium containing increasing concentrations of test compound (4 wells per sample) in the presence or absence of 100 μM free folic acid as indicated. Treated cells are pulsed for 2 h at 37° C., rinsed 4 times with 0.5 mL of media, and then chased in 1 mL of fresh medium up to 70 h. Spent medium is aspirated from all wells and replaced with fresh medium containing 5 μCi/mL ^3H-thymidine. Following a further 2 h 37° C. incubation, cells are washed 3 times with 0.5 mL of PBS and then treated with 0.5 mL of ice-cold 5% trichloroacetic acid per well. After 15 min, the trichloroacetic acid is aspirated and the cell material solubilized by the addition of 0.5 mL of 0.25 N sodium hydroxide for 15 min. A 450 μL aliquot of each solubilized sample is transferred to a scintillation vial containing 3 mL of Ecolume scintillation cocktail and then counted in a liquid scintillation counter. Final results are expressed as the percentage of ^3H-thymidine incorporation relative to untreated controls.

[3] = system: NC1/ADR-RES-Cl2 (FR+); test: In vitro activity, 3H-thymidine incorporation, NC1/ADR-RES-Cl2; type: cell-based, Human
Protocol: as §1, with “Treated cells are pulsed for 2 h at 37° C., rinsed 4 times with 0.5 mL of media, and then chased in 1 mL of fresh medium up to 70 h. Spent medium is aspirated from all wells and replaced with fresh medium containing 5 μCi/mL ^3H-thymidine. Following a further 2 h 37° C. incubation, cells are washed 3 times with 0.5 mL of PBS and then treated with 0.5 mL of ice-cold 5% trichloroacetic acid per well. After 15 min, the trichloroacetic acid is aspirated and the cell material solubilized by the addition of 0.5 mL of 0.25 N sodium hydroxide for 15 min.” left out

[4] = system: IGROV1 (FR+); test: In vitro activity, 3H-thymidine incorporation, IGROV1; type: cell-based, Human
Protocol: as §1, with “Treated cells are pulsed for 2 h at 37° C., rinsed 4 times with 0.5 mL of media, and then chased in 1 mL of fresh medium up to 70 h. Spent medium is aspirated from all wells and replaced with fresh medium containing 5 μCi/mL ^3H-thymidine. Following a further 2 h 37° C. incubation, cells are washed 3 times with 0.5 mL of PBS and then treated with 0.5 mL of ice-cold 5% trichloroacetic acid per well. After 15 min, the trichloroacetic acid is aspirated and the cell material solubilized by the addition of 0.5 mL of 0.25 N sodium hydroxide for 15 min.” left out

[5] = system: MDA-MB-231 (FR+); test: In vitro activity, 3H-thymidine incorporation, MDA-MB-231; type: cell-based, Human
Protocol: as §1, with “Treated cells are pulsed for 2 h at 37° C., rinsed 4 times with 0.5 mL of media, and then chased in 1 mL of fresh medium up to 70 h. Spent medium is aspirated from all wells and replaced with fresh medium containing 5 μCi/mL ^3H-thymidine. Following a further 2 h 37° C. incubation, cells are washed 3 times with 0.5 mL of PBS and then treated with 0.5 mL of ice-cold 5% trichloroacetic acid per well. After 15 min, the trichloroacetic acid is aspirated and the cell material solubilized by the addition of 0.5 mL of 0.25 N sodium hydroxide for 15 min.” left out

[6] = system: A549 (FR-); test: In vitro activity, 3H-thymidine incorporation, A549; type: cell-based, Human; conditions: evaluated from 0.1-100 nM
Protocol: as §1, with “Treated cells are pulsed for 2 h at 37° C., rinsed 4 times with 0.5 mL of media, and then chased in 1 mL of fresh medium up to 70 h. Spent medium is aspirated from all wells and replaced with fresh medium containing 5 μCi/mL ^3H-thymidine. Following a further 2 h 37° C. incubation, cells are washed 3 times with 0.5 mL of PBS and then treated with 0.5 mL of ice-cold 5% trichloroacetic acid per well. After 15 min, the trichloroacetic acid is aspirated and the cell material solubilized by the addition of 0.5 mL of 0.25 N sodium hydroxide for 15 min.” left out

[7] = system: H23 (FR-); test: In vitro activity, 3H-thymidine incorporation, H23; type: cell-based, Human; conditions: evaluated from 0.1-100 nM
Protocol: as §1, with “Treated cells are pulsed for 2 h at 37° C., rinsed 4 times with 0.5 mL of media, and then chased in 1 mL of fresh medium up to 70 h. Spent medium is aspirated from all wells and replaced with fresh medium containing 5 μCi/mL ^3H-thymidine. Following a further 2 h 37° C. incubation, cells are washed 3 times with 0.5 mL of PBS and then treated with 0.5 mL of ice-cold 5% trichloroacetic acid per well. After 15 min, the trichloroacetic acid is aspirated and the cell material solubilized by the addition of 0.5 mL of 0.25 N sodium hydroxide for 15 min.” left out

[8] = system: HepG2 (FR-); test: In vitro activity, 3H-thymidine incorporation, HepG2; type: cell-based, Human; conditions: evaluated from 0.1-100 nM
Protocol: as §1, with “Treated cells are pulsed for 2 h at 37° C., rinsed 4 times with 0.5 mL of media, and then chased in 1 mL of fresh medium up to 70 h. Spent medium is aspirated from all wells and replaced with fresh medium containing 5 μCi/mL ^3H-thymidine. Following a further 2 h 37° C. incubation, cells are washed 3 times with 0.5 mL of PBS and then treated with 0.5 mL of ice-cold 5% trichloroacetic acid per well. After 15 min, the trichloroacetic acid is aspirated and the cell material solubilized by the addition of 0.5 mL of 0.25 N sodium hydroxide for 15 min.” left out

[9] = system: AN3CA (FR-); test: In vitro activity, 3H-thymidine incorporation, AN3CA; type: cell-based, Human; conditions: evaluated from 0.1-100 nM
Protocol: as §1, with “Treated cells are pulsed for 2 h at 37° C., rinsed 4 times with 0.5 mL of media, and then chased in 1 mL of fresh medium up to 70 h. Spent medium is aspirated from all wells and replaced with fresh medium containing 5 μCi/mL ^3H-thymidine. Following a further 2 h 37° C. incubation, cells are washed 3 times with 0.5 mL of PBS and then treated with 0.5 mL of ice-cold 5% trichloroacetic acid per well. After 15 min, the trichloroacetic acid is aspirated and the cell material solubilized by the addition of 0.5 mL of 0.25 N sodium hydroxide for 15 min.” left out

[10] = system: KB tumors; test: Inhibition of tumor growth, s.c. KB tumors in nu/nu mice; type: in vivo; design: key to In vivo activity (e): CR = complete response, where tumor volume, as defined herein, during the observation period was zero for all test animals in the group; conditions: for CR: 2 weeks
Protocol: METHOD. Inhibition of Tumor Growth in Mice. […] For tumor cell inoculation, 1×10^6 M109 cells (a syngeneic lung carcinoma) in Balb/c strain, or 1×10^6 KB cells in nu/nu strain, in 100 μL are injected in the subcutis of the dorsal medial area (right axilla).
METHOD. Toxicity as Measured by Weight Loss. The percentage weight change of the test animals is determined on selected days post-tumor inoculation (PTI), and during dosing. The results are graphed.

[11] = system: MDA-MB-231 tumors; test: TNBC tumor assay, s.c. MDA-MB-231 xenografts; type: in vivo, nu/nu mice; conditions: 2 μmol/kg i.v. TIW, 2 weeks
From the text: METHOD. TNBC Tumor Assay. Triple negative breast cancer (TNBC) is a subtype characterized by lack of gene expression for estrogen, progesterone and Her2/neu. TNBC is difficult to treat, and the resulting death rate in patients is reportedly disproportionately higher than for any other subtype of breast cancer. A TNBC xenograft model was generated in an analogous way to the KB and M109 models described herein by implanting MDA-MB-231 breast cancer cells in nu/nu mice. Dosing is initiated when the s.c. tumors have an average volume between 110-150 (generally 130) mm^3 (t0), typically 17 days post tumor inoculation (PTI).
EXAMPLE. […] Without being bound by theory, it is believed herein that the test animals were cured of the triple negative breast cancer.

[12] = system: KB-CR2000 (cisplatin resistant) tumors; test: Cisplatin-resistant KB-CR2000 tumor model; type: in vivo, mice
[13] = Maximum tolerated dose (MTD); design: species or system Sprague-Dawley rats; conditions: rat, in vivo
Protocol: EXAMPLE. Maximum tolerated dose (MTD). […] Test compounds are administered by i.v., BIW, 2 wks in female Sprague-Dawley rats. Comparator compound EC0531 has a MTD of 0.33 μmol/kg, while EC1456 has a MTD of at least 0.51 μmol/kg, a […], as shown in FIG. 20. Histopathologic changes were not observed with doses of EC1456 at or below the MTD.

T1 sequence (P15328 25-234): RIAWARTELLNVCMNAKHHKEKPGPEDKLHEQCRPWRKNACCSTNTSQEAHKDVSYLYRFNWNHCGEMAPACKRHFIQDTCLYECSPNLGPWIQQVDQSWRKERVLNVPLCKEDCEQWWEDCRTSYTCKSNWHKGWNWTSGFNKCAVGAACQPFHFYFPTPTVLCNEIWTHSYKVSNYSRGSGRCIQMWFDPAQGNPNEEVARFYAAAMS

## CCCC(=O)OCN(C(=O)[C@@H](NC(=O)[C@H]1CCCCN1C)C(C)CC)C(C[C@@H](OC(C)=O)c1nc(C(=O)N[C@@H](Cc2ccc(O)cc2)C[C@H](C)C(=O)NNC(=O)OCCSSC[C@@H](NC(=O)[C@H](CCC(=O)NC[C@H](O)[C@@H](O)[C@H](O)[C@H](O)CO)NC(=O)[C@@H](CCC(=O)O)NC(=O)[C@H](CCC(=O)NC[C@H](O)[C@@H](O)[C@H](O)[C@H](O)CO)NC(=O)[C@@H](CCC(=O)O)NC(=O)[C@H](CCC(=O)NC[C@H](O)[C@@H](O)[C@H](O)[C@H](O)CO)NC(=O)CC[C@@H](NC(=O)c2ccc(NCc3cnc4nc(N)[nH]c(=O)c4n3)cc2)C(=O)O)C(=O)O)cs1)C(C)C (stereo partly drawn) [EC1456]
[1]
  Relative Affinity (a) compared to folic acid: 0.27
[2]
  improvement in specificity compared to comparator EC0531: 4 fold
[2]; IC50 competed group vs non-competed group
  In vitro specificity (fold) (d): 944 fold
[2]; IC50 competed vs non-competed group
  specificity for the folate receptor by folic acid competition: ca. 1000 fold
[2]; KB
  Competable up to 100 nM: Yes
[3]
  Competable up to 100 nM: Yes
[4]
  Competable up to 100 nM: Yes
[5]
  Competable up to 100 nM: Yes
[6]
  Activity (IC50): Inactive (a)
[7]
  Activity (IC50): Inactive
[8]
  Activity (IC50): Inactive
[9]
  Activity (IC50): Inactive
[10]; 0.5 μmol/kg, TIW, 3 weeks, untreated control 2.4%
  Toxicity: Avg. Weight Loss: <5%*
[10]; 1 μmol/kg TIW, 2 wk
  whole animal toxicity (body weight): did not result in any observable whole animal toxicity; also recorded: does not show any evidence of whole animal toxicity
[10]; 1 μmol/kg i.v. TIW, 2 wk
  complete response (test animals): 4/4
[10]; 1.0 μmol/kg, TIW
  CR: 60%
[10]; 2.0 μmol/kg, TIW
  CR: 100%
[10]; EC0923 50 or 100 μmol/kg co-dosed
  activity competable with excess EC0923: competable
[10]; subcutaneous KB tumor in nu/nu mice
  In vivo activity (e): CR
[11]
  weight loss / gross whole animal toxicity: did not cause gross whole animal toxicity; also recorded: not accompanied by significant weight loss
[11]; observation nearly 135 days
  complete responses (test animals): 4 of 5
[12]; 2 μmol/kg i.v. TIW, 2 weeks
  CRs (test animals): 5/5
  regrowth of the tumor (test animals): 1/5
  weight loss / host animal toxicity: did not exhibit significant host animal toxicity; also recorded: did not cause any weight loss
[12]; nearly 70 day observation period
  test animals cured (no regrowth): 4/5
[13]
  improvement in MTD over EC0531: 65%
[13]; iv, BIW, 2 wks, female Sprague-Dawley rats
  MTD at 2 weeks: ≥ 0.51 µmol/kg
